Values of other authors, collected in US20170071839A1, “Personal care and medicinal products incorporating organosulfur groups” (priority 2015, published 2017).
Read-outs that look alike come from different tables or passages of the source.

How the values were obtained:
[1] = test system: LDL
[2] = after garlic consumption
[3] = not given; remark: listed apart in the source
[4] = biological target: NFkB signal transduction proteins p50 and P65 (Homo sapiens, UniProt P19838+Q04206)
[5] = test system: E-coli O157:H7
[6] = test system: nematicidal activity
[7] = test system: Salmonella typhimurium and E. coli
[8] = after fresh garlic (e.g. 25 g) or pure allicin (60 mg)
[9] = shelf stability
[10] = test system: total glutathione level of cells
[11] = test system: acetaminophen (Tylenol) poisoning
[12] = test system: NFkB; conditions: macrophages

## S-allylcysteine sulfoxide [alliin]
[1]
  effect on Cu2+ induced LDL oxidation: significantly reduce

## C=CCSSCC=C [DADS, Diallyl Disulfide]
other
  Reaction in Blood Product (moles): AllylSH (0.8)

## C=CCS [AllylSH, AllylThiol]
[2]
  time of disappearance from breath: ≤ 1 h
[3]
  solubility: water soluble

## [N]=O [nitric oxide]
[4]
  concentration that inhibited the DNA binding activity: 20-100 nano mole

## CS[S+](C)[O-] (stereo not drawn) [methyl methane thiosulfinate]
[5]
  activity against E-coli O157:H7: effective

## CCCS[S+]([O-])CCC (stereo not drawn) [dipropylthiosulfinate]
[6]
  nematicidal activity: most effective compound

## CCCSSCCC [di-n-proply disulfide]
[7]
  antibiotic effectiveness: antibiotic effectiveness

## C=CCSC[C@H](NC(C)=O)C(=O)O [N-acetyl-S-allylcysteine]
[1]
  effect on Cu2+ induced LDL oxidation: significantly reduce

## C=CCS[S+]([O-])CC=C (stereo not drawn) [Allicin, DiAllylThioSulfinate]
[8]
  detection in blood, urine, or stool: undetectable
[9]
  half-life: weeks to months
other
  Reaction in Blood Product (moles): AllylSH (1.6)
Red blood cells exposed to allicin
  time to be metabolized to allyl mercaptan: less than one

## C=CCSC [AMS, allyl methyl sulfide]
[2]
  time of disappearance from breath: 20 h

## C=CCSSC[C@H](N)C(=O)O [SAMC, S-AllylMercaptoCysteine]
[1]
  effect on Cu2+ induced LDL oxidation: significantly reduce
other
  Reaction in Blood Product (moles): AllylSH (0.8)
[10]
  total glutathione level of cells: significantly increase the total glutathione level
[11]; post treatment, single dose 200 mg/kg
  protection from acetaminophen poisoning: protective
[11]; pretreatment
  protection from acetaminophen poisoning: protect mice

## N[C@@H](CSN=O)C(=O)O [S-Nitrosocysteine]
[12]
  concentration that nearly completely inhibits the activation of NFkB: 1 micro-mole

## N[C@@H](CSSC[C@H](N)C(=O)O)C(=O)O [Cysteine disulfide, Cystine]
[3]
  solubility: low solubility

## C=CCS[S+](C)[O-] (stereo not drawn) [methyl allyl thiosulfinate]
[5]
  activity against E-coli O157:H7: effective

## C=CCSC[C@H](N)C(=O)O [S-allylcysteine]
[1]
  effect on Cu2+ induced LDL oxidation: significantly reduce

## C=CCSSCCC [n-propyl allyl disulfide]
[7]
  antibiotic effectiveness: antibiotic effectiveness
